Columns and labels:
Type in all cases: cell-based, human
[1] = system: cyclin E and CDK2 complexes in MCF-7/Ac1 cells; experiment: Immunoprecipitation of cyclin E or CDK2 followed by western blot for p21 and p27
Protocol: Immunoprecipitation and Immunoblotting. Two hundred fifty μg of cell extracts were used per immunoprecipitation with polyclonal antibody to cyclin E or polyclonal antibody to CDK2, coupled to protein A beads. After being washed, the immunoprecipitates were subjected to electrophoresis in 13% gels, transferred to Immobolin P, blocked, and incubated with the indicated antibodies as already described.
(§1) MCF-7/Ac1 cells were treated with the indicated concentrations of letrozole and AD for 3 days. Cyclin E kinase assays were performed by immunoprecipitating equal amounts of cell lysate (250 μg) with monoclonal antibodies to cyclin E coupled to protein A beads, using histone H1 as substrate. […] The same cell lysates were subjected to western blot analysis (50 μg of protein) with the indicated antibodies. […] The same cell lysates were first immunoprecipitated with cyclin E followed by western blot for p21 and p27. […] The same cell lysates were first immunoprecipitated with CDK2 followed by western blot for p21 and p27. The levels of proteins were measured by densitometric scanning of the corresponding bands and normalized using actin values. The values indicated at the bottom were compared to the values obtained with untreated cells.

MCF-7/Ac1 cells [2] = experiment: Cell growth by cell counting, AD-stimulated cells; details: Homo sapiens, MCF7, 72 h, with 25 nM AD, 3 days, read-out: inhibition of AD-induced growth
Protocol: Cell growth. The effects of the aromatase inhibitors on MCF7/Ac1 cells growth were examined by counting the cells at the indicated time. The cells were detached from their flask using trypsin and counted using a Coulter counter machine.
To examine the effects of the three different aromatase inhibitors on the proliferation of MCF-7/Ac1 cells, cells were cultured in estrogen deprived, charcoal stripped serum media (CSSM). The response of the cells to 25 nM of androstenedione (AD) alone or AD plus one of the 3 aromatase inhibitors letrozole (FIG. 22A), anastrozole (FIG. 22B), and exemestane (FIG. 22C) was measured after 3 days of treatment. Cells maintained in CSSM were used as controls.
FIGS. 22A-22C show the effect of aromatase inhibitor treatment on proliferative response and cell cycle distribution of MCF-7/Ac1 cells. Cells were cultured in IMEM with 10% charcoal-stripped serum medium (CSSM) without phenol red and with 600 μg/ml of G418 for 4 days before plating. Cells (100,000) were seeded in 100 mm dishes and, 24 hrs later, were exposed for 3 days to the specific treatment. […] CSSM, untreated cells cultured in charcoal-stripped serum medium without phenol red and with 600 μg/ml of G418.

[3] = system: CDK2-associated kinase activity in MCF-7/Ac1 cells; experiment: CDK2-associated kinase assay (histone H1); details: with 25 nM AD, 3 days
Protocol: (§2) FIG. 28. Effect of increasing concentrations of letrozole in the presence of 25 nM AD on CDK2 kinase activity, activated CDK2 and Rb phosphorylation of MCF7/Ac1 human breast cancer cells. MCF-7/Ac1 cells were treated with the indicated concentrations of letrozole and AD for 3 days. CDK2 kinase assays were performed by immunoprecipitating equal amounts of cell lysate (250 μg) with monoclonal antibodies to CDK2 (D12, sc-6248) coupled to protein G beads, using histone H1 as substrate. […] The same cell lysates were subjected to western blot analysis (50 μg of protein) with the indicated antibodies.

MCF-7/Ac1 cells [4] = experiment: Western blot of CDK2, phospho-CDK2, cyclin E, pRb
Protocol: as §2
Western blot analysis. Cell lysates were prepared and subjected to western blot analysis as described previously (Akli et al., 2004). Briefly, 50 μg of protein were subjected to electrophoresis on SDS-PAGE and transferred to Immobilon P overnight at 4° C. at […] constant voltage. The blots were blocked overnight at 4° C. in BLOTTO [5% nonfat dried milk in 20 mM Tris, 137 mM NaCl, and 0.05% Tween (pH 7.6)]. After being washed, the blots were incubated in primary antibodies for 3 h. Primary antibodies used were cyclin E (HE-12; Santa Cruz Biotechnology), p21 (0P64; Oncogene Research Products, Boston, Mass.), p27 (K25020; BD Biosciences-Transduction Laboratories, Lexington, Ky.), cyclin-dependent kinase 2 (CDK2; Transduction Laboratories), and actin (Chemicon International, Inc., Temecula, Calif.). Blots were then incubated with goat anti-mouse or anti-rabbit immunoglobulin-horseradish peroxidase conjugate at a dilution of 1:5000 in BLOTTO for 1 h and finally washed and developed by using the Renaissance chemiluminescence system as directed by the manufacturer (Perkin-Elmer Life Sciences, Inc., Boston, Mass.). Western blots were quantitated by densitometric analysis using IPLab Gel software (Scientific Image Processing, Vienna, Va.). Densitometric values of actin were used to standardize for equal protein loading. These values were introduced into the software Graph-Pad Prism version 4.0 (GraphPad Software, Inc., San Diego, Calif.) for statistical analysis.
as §1

[5] = system: CDK2 kinase activity in MCF-7/Ac1 cells; experiment: CDK2 kinase assay in LacZ or cyclin E-T1 adenovirus-infected cells; details: 1 μM letrozole
Protocol: MCF-7/Ac1 cells were cultured in IMEM with 10% charcoal-stripped serum medium (CSSM) without phenol red and with 600 μg/ml of G418 for 4 days before plating. Plates were then infected with LacZ (4000 m.o.i) or increasing concentration of cyclin E-T1 adenoviruses 24 hours before drug treatment. Cells were then left untreated (E2W, estrogen withdrawal) or treated with 25 nM AD (AD) or treated with 25 nM AD and 1 μM letrozole (AD+Let) and collected 3 days later for CDK2 kinase activity. CDK2 kinase assays were performed by immunoprecipitating equal amounts of cell lysate (250 μg) with monoclonal antibodies to CDK2 (D12, sc-6248) coupled to protein G beads, using histone H1 as substrate. The bar graph represents the densitometric values of the phosphorylated histone H1 substrate.

N#Cc1ccc(C(c2ccc(C#N)cc2)n2cncn2)cc1 [letrozole]
p21 binding to both cyclin E and CDK2 ([1]; letrozole with 25 nM AD): slightly decreased
increase in p27 binding to both cyclin E and CDK2 over levels in AD treated cells ([1]; letrozole, dose-dependent, with 25 nM AD): up to 2 fold
inhibition at 0.1 µM (MCF-7/Ac1 cells [2]; 0.1 μM): 37.2%
inhibition at 1 µM (MCF-7/Ac1 cells [2]; 1 μM): 63.5%
concentration that blocked the AD-induced increase in CDK2-associated kinase activity [3]: ≤ 0.125 µM
cyclin E protein levels (MCF-7/Ac1 cells [4]; 0.5 μM letrozole with 25 nM AD): slightly decreased
effect on AD-induced increase in CDK2 protein levels (MCF-7/Ac1 cells [4]; increasing letrozole with 25 nM AD): blocked the increase in CDK2 protein levels in a dose dependent manner
phosphorylation of endogenous CDK2 substrate pRb (MCF-7/Ac1 cells [4]; letrozole with 25 nM AD): decreased phosphorylation
block of CDK2 kinase activity ([5]; LMW cyclin E (T1) expressing cells, any m.o.i): cannot block
block of AD-induced increase in CDK2 kinase activity ([5]; LacZ expressing cells): completely blocks

Reference: US20120114636A1, “LOW MOLECULAR WEIGHT CYCLIN E (LMW-E) AS A BIOMARKER FOR PERSONALIZATION OF CANCER THERAPIES” (The Board of Regents of the University of Texas System, priority 2009, published 2012)
